Source: the NIST ThermoML archive (doi:10.1021/je050162g)

Assay: xn = mol fraction of the nth substance listed
Settings: 101 kPa, Liquid; for viscosity: Capillary tube (Ostwald / Ubbelohde) method; for excess molar volume: Direct dilatometry; for speed of sound: Linear variable-path acoustic interferometer

C=COC(C)=O [vinyl acetate] + Cc1ccc(C)cc1
Settings | excess molar volume, 303.15 K [m3/mol] | excess molar volume, 308.15 K [m3/mol] | excess molar volume, 313.15 K [m3/mol] | speed of sound, 303.15 K [m/s] | speed of sound, 308.15 K [m/s] | speed of sound, 313.15 K [m/s] | viscosity, 303.15 K [mPa·s] | viscosity, 308.15 K [mPa·s] | viscosity, 313.15 K [mPa·s]
x2 = 0 | 0 | 0 | 0 | 1095.9 | 1072.5 | 1055.7 | 0.384 | 0.361 | 0.332
x2 = 0.0767 | -4.3e-08 | 2e-08 | 4.2e-08 | 1108.1 | 1084.9 | 1067.7 | 0.4 | 0.367 | 0.333
x2 = 0.1577 | -6.8e-08 | 3.8e-08 | 7.2e-08 | 1122.6 | 1098.2 | 1080.6 | 0.415 | 0.376 | 0.341
x2 = 0.2421 | -7.3e-08 | 5.7e-08 | 9.8e-08 | 1138.8 | 1112.3 | 1094.7 | 0.428 | 0.387 | 0.352
x2 = 0.3332 | -7.2e-08 | 7.3e-08 | 1.21e-07 | 1156.6 | 1128 | 1110.6 | 0.44 | 0.399 | 0.365
x2 = 0.43 | -6.1e-08 | 8.9e-08 | 1.41e-07 | 1175.5 | 1145.6 | 1128.6 | 0.453 | 0.414 | 0.38
x2 = 0.5319 | -5.1e-08 | 9.6e-08 | 1.48e-07 | 1195.4 | 1165.3 | 1148.8 | 0.469 | 0.432 | 0.399
x2 = 0.6371 | -2.7e-08 | 9.2e-08 | 1.4e-07 | 1215.8 | 1187.3 | 1171 | 0.489 | 0.453 | 0.422
x2 = 0.7488 | -4e-09 | 7.6e-08 | 1.13e-07 | 1237.4 | 1211.9 | 1196.4 | 0.512 | 0.478 | 0.447
x2 = 0.8654 | 6e-09 | 4.4e-08 | 7.2e-08 | 1259.7 | 1238.6 | 1224.5 | 0.538 | 0.504 | 0.475
